Measurements from ChEMBL document CHEMBL1671692, “Intravenous voriconazole after toxic oral administration” (Antimicrob Agents Chemother, 2010).

Legend:
Format in all cases: organism-based
[1] = test system: Homo sapiens; test: Toxicity in sphenoid sinus human patient assessed as occurrence of cutaneous reaction with red striae treatment increased upto 300 mg, po QID by biopsy hostopathological analysis; conditions: in vivo
[2] = test system: Homo sapiens; test: Toxicity in sphenoid sinus human patient assessed as occurrence of extended interface dermatitis with vacuolar alteration of the basilar epidermis treatment increased upto 300 mg, po QID by biopsy hostopathological analysis; conditions: in vivo
[3] = test system: Homo sapiens; test: Toxicity in sphenoid sinus human patient assessed as occurrence of superficial edema treatment increased upto 300 mg, po QID by biopsy hostopathological analysis; conditions: in vivo
[4] = test system: Homo sapiens; test: Toxicity in sphenoid sinus human patient assessed as occurrence of pseudoporphyria treatment increased upto 300 mg, po QID by biopsy hostopathological analysis; conditions: in vivo
[5] = test system: Homo sapiens; test: Toxicity in sphenoid sinus human patient assessed as occurrence of epidermolysis bullosa acquisita treatment increased upto 300 mg, po QID by biopsy hostopathological analysis; conditions: in vivo
[6] = test system: Homo sapiens; test: Toxicity in sphenoid sinus human patient assessed as occurrence of erythema multiforme treatment increased upto 300 mg, po QID by biopsy hostopathological analysis; conditions: in vivo
[7] = test system: Homo sapiens; test: Toxicity in sphenoid sinus human patient assessed as mild elevations in liver enzyme level treatment increased upto 500 mg, iv BID for 8 weeks; conditions: in vivo, 1344 h
[8] = test system: Homo sapiens; test: Toxicity in sphenoid sinus human patient assessed as recurrence of the cutaneous reaction treatment increased upto 500 mg, iv BID for 8 weeks; conditions: in vivo, 1344 h
[9] = test system: Homo sapiens; test: Toxicity in sphenoid sinus human patient assessed as desensitization to several types of adverse reactions at 500 mg, iv BID after 8 weeks; conditions: in vivo, 1344 h
[10] = test system: Homo sapiens; test: Toxicity in sphenoid sinus human patient assessed as increase in liver enzyme level treatment increased upto 300 mg, iv QID for 8 weeks measured after 2 weeks of treatment discontinuation; conditions: in vivo
[11] = test system: Homo sapiens; test: Toxicity in sphenoid sinus human patient assessed as apoptotic or necrotizing keratinocytes treatment increased upto 300 mg, po QID; conditions: in vivo
[12] = test system: Homo sapiens; test: Toxicity in sphenoid sinus human patient assessed as increase in liver enzyme level treatment increased upto 300 mg, iv QID relative to control; conditions: in vivo
[13] = test system: Homo sapiens; test: Toxicity in sphenoid sinus human patient assessed as inflammatory infiltration treatment increased upto 300 mg, po QID by biopsy hostopathological analysis; conditions: in vivo
[14] = test system: Homo sapiens; test: Toxicity in sphenoid sinus human patient assessed as cutaneous reaction treatment increased upto 300 mg, iv QID for 8 weeks measured after 2 weeks of treatment discontinuation; conditions: in vivo

SMILES: C[C@@H](c1ncncc1F)[C@](O)(Cn1cncn1)c1ccc(F)cc1F [VORICONAZOLE]
- Activity [1]: Toxic
- Activity [2]: Toxic
- Activity [3]: Toxic
- Activity [4]: Toxic
- Activity [5]: Toxic
- Activity [6]: Toxic
- Activity [7]: Toxic
- Activity [8]: Non-toxic
- Activity [9]: Non-toxic
- Activity [10]: Non-toxic
- Activity [11]: Non-toxic
- Activity [12]: Toxic
- Activity [13]: Non-toxic
- Activity [14]: Non-toxic
